{
  "source": "paper PMC12282105",
  "about": "(RSC Advances, 2025)",
  "biological_target": "SARS-CoV-2 main protease (M^pro or 3CL^pro) (Severe acute respiratory syndrome coronavirus 2, UniProt P0DTD1)",
  "experiment": "Fluorogenic substrate assay of SARS-CoV-2 main protease",
  "type": "biochemical",
  "conditions": "compound 9 relative to compound 8",
  "data": [
    {"smiles": "O=c1cc(-c2ccc(O)cc2)oc2cc(O[C@@H]3O[C@H](CO)[C@@H](O)[C@H](O)[C@H]3O)cc(O)c12", "note": "[Compound 9, apigenin-7-O-β-D-glucopyranoside]", "values": [
      {"measurement": "improvement in protease inhibitory activity", "result": 15, "unit": "fold"}
    ]}
  ]
}
